# Assay results reported in patent US11021444B2, “Antiviral compounds” (priority 2013, dated 2021).
# Where two headings read alike, the source gives them in different places.
# Key:
# [1] = tested on: Respiratory Syncytial Virus (RSV) long strain; test: microbe, parasite or virus in culture; format: cell-based; conditions: human respiratory syncytial virus, Tables A and B list compounds by EC50 band
# Procedure, shortened: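 CPE-reduction format: viability measured colorimetrically with CCK-8 (450 nm, 630 nm reference) after 3-4 h, following 5-day infection at 37 °C, 5% CO2. Cells were HEp-2; inoculum 100 TCID50/well; duplicate 9-point 1/3 series starting at 100 μM or 1 μM.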
# [2] = Cytotoxicity Determination (CCK-8, without addition of virus); format: cell-based; conditions: human, 50% cytotoxicity concentration (CC50)
# Procedure, shortened: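 Cytotoxicity was measured by CCK-8 after 3-4 hours at 37 °C, following 5 days of uninfected exposure at 37 °C and 5% CO2. Compounds ran as duplicate 7-point 1/2 dilutions starting at 100 μM, with 1% final DMSO. HEp-2 cells had been plated at 1,500/well the day before.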
# recombinant RSV complex = recombinant RSV complex (Human respiratory syncytial virus A, UniProt P28887); test: RSV Polymerase Inhibition Assay; format: biochemical
# Procedure, shortened: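 Inhibition measured as reduced incorporation of radiolabel into RNA products, detected by scintillation counting. Reactions: recombinant RSV complex (10 nM), RNA oligonucleotides, Tris-HCl pH 7.5, 6 mM MgCl2, inhibitor titration, 2 h at 30 °C, EDTA stop.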
# [3] = HEp-2, 120 h, read-out: 50% effective concentration (EC50), HEp-2 cells infected with RSV long strain, 5 days, CCK-8 readout
# [4] = 120 h, read-out: 50% effective concentration (EC50), HEp-2 cells infected with RSV long strain, 5 days, CCK-8 readout
# Sequence of recombinant RSV complex (P28887 whole entry): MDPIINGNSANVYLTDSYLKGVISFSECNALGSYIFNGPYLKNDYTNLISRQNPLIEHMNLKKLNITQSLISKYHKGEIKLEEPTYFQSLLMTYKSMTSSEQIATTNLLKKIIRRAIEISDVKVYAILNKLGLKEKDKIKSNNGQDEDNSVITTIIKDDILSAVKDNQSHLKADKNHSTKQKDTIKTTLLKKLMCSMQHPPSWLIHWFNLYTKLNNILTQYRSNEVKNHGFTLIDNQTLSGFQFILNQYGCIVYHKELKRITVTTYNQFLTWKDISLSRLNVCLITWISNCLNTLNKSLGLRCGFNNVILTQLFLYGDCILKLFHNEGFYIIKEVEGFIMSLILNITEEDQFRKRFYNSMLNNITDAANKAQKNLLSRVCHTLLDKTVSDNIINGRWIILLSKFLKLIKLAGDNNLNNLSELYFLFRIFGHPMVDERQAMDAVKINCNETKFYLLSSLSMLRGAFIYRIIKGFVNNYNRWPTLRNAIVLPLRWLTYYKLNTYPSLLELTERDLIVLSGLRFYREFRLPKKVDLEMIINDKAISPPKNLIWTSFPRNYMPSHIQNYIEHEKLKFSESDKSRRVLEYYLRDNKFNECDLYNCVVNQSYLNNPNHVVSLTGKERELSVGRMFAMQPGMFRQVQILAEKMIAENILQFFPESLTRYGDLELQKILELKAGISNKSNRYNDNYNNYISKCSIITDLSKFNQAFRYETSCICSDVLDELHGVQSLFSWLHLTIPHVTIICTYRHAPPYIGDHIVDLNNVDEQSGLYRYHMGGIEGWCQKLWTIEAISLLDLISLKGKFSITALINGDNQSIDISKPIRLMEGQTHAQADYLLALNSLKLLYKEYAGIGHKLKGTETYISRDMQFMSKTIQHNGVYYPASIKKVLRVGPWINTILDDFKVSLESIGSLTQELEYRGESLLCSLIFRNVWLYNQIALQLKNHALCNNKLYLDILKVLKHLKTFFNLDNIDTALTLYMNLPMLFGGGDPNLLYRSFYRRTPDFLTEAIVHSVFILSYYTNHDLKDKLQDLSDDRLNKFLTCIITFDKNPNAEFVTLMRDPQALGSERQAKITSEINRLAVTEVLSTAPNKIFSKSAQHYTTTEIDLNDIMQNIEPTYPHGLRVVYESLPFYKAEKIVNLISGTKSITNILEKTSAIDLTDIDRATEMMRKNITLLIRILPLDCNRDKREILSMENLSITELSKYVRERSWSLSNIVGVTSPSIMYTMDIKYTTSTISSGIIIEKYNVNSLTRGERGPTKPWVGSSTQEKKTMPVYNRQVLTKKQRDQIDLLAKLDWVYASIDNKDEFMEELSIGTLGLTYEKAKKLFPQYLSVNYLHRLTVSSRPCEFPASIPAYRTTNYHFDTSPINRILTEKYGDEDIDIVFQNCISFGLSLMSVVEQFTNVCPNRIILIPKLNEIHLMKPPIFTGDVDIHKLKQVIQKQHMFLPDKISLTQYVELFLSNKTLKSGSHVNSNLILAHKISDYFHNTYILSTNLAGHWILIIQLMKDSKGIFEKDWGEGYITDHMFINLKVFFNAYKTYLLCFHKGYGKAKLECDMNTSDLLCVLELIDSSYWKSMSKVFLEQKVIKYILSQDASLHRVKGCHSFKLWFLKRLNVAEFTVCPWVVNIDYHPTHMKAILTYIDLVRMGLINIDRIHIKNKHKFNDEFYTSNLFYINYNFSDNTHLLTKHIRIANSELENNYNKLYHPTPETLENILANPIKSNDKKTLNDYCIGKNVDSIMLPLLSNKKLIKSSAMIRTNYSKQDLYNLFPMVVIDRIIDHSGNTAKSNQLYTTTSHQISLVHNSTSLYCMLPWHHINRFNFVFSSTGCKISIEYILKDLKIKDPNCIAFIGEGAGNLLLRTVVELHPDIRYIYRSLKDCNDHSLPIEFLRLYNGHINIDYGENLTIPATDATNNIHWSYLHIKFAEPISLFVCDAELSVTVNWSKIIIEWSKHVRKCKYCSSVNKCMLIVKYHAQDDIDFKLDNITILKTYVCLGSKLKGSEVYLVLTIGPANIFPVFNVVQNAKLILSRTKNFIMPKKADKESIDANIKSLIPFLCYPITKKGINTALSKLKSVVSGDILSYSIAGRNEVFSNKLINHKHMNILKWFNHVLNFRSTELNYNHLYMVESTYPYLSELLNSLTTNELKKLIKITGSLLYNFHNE
# Sequence of recombinant RSV complex (P03421 whole entry, further chain): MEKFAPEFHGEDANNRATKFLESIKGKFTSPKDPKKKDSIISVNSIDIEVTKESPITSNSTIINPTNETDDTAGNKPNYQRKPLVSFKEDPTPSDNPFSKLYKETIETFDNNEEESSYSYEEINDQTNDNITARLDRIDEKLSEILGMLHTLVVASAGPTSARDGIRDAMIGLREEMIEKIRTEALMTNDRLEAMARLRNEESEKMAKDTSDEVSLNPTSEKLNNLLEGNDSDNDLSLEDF
Structure (SMILES),"EC50 [1, 3]",CC50 at 5 days [2],IC50 (recombinant RSV complex),"EC50 [1, 4]"
COc1cc(C(=O)NCC(=O)c2cc3c(c(-c4ccc(F)c(Cl)c4)n2)OCC3(C)O)ccc1OC1CC1 (stereo not drawn) [Compound 473],< 1 µM,10 to 100 µM,< 1 µM,
COc1cc(C(=O)NCC(=O)c2cc3c(C)coc3c(-c3ccc(F)c(Cl)c3)n2)ccc1OC1CC1 [Compound 474],< 1 µM,> 100 µM,< 1 µM,
COc1cc(C(=O)NCC(C)(O)c2cc3c(c(-c4ccc(F)c(Cl)c4)n2)OCC3(C)O)ccc1OC1CC1 (stereo not drawn) [Compound 475],< 1 µM,10 to 100 µM,< 1 µM,
CC1(N)COc2c1cc(C(O)(CNC(=O)c1ccc(OCCO)c(F)c1)C(F)(F)F)nc2-c1ccc(F)cc1 (stereo not drawn) [Compound 476],< 1 µM,10 to 100 µM,< 1 µM,
CC(C)(N)c1cc(-c2ccc(F)c(Cl)c2)nc(C(O)(CNC(=O)c2cn3cccnc3n2)C(F)(F)F)c1 (stereo not drawn) [Compound 477],1 to 50 µM,10 to 100 µM,< 10 µM,
COc1cc(C(=O)NCC(O)(c2ccc(OCCN)c(-c3ccc(F)cc3)n2)C(F)(F)F)ccc1OC1CC1 (stereo not drawn) [Compound 479],< 1 µM,10 to 100 µM,< 1 µM,
COc1cc(C(=O)NCC(O)(c2cc3c(c(-c4ccc(F)c(Cl)c4)n2)OCC3(C)N[S+]([O-])C(C)(C)C)C(F)(F)F)ccc1OC1CC1 (stereo not drawn) [Compound 482],< 1 µM,10 to 100 µM,< 1 µM,
COc1cc(C(=O)NCC(O)(c2cc(C(C)(N)CO)cc(-c3ccc(F)cc3)n2)C(F)(F)F)ccc1OCCO (stereo not drawn) [Compound 484],1 to 50 µM,> 100 µM,< 10 µM,
COc1cc(C(=O)NCC(O)(c2cc3c(c(-c4ccc(F)nc4)n2)OCC3(C)N)C(F)(F)F)ccc1OCCO (stereo not drawn) [Compound 492],1 to 50 µM,> 100 µM,< 10 µM,
COc1cc(C(=O)NC[C@@](O)(c2cc(C(C)(C)N)cc(-c3ccc(F)cc3)n2)C(F)(F)F)ccc1OC1CC1 [Compound 495],< 1 µM,10 to 100 µM,< 1 µM,
COc1cc(C(=O)NCC(N)(c2ccc(OC)c(-c3ccc(F)c(Cl)c3)n2)C(F)F)ccc1OC1CC1 (stereo not drawn) [Compound 517],< 1 µM,10 to 100 µM,< 1 µM,
COc1cc(C(=O)NCC(N)(CF)c2ccc(OC)c(-c3ccc(F)c(Cl)c3)n2)ccc1OC1CC1 (stereo not drawn) [Compound 518],< 1 µM,10 to 100 µM,< 1 µM,
COCC(C)(NC(C)=O)c1cc(-c2ccc(F)c(Cl)c2)nc(C(O)(CNC(=O)c2ccc(OC3CC3)c(OC)c2)C(F)(F)F)c1 (stereo not drawn) [Compound 537],< 1 µM,10 to 100 µM,< 1 µM,
COCC(C)(N)c1cc(-c2ccc(F)c(Cl)c2)nc(C(O)(CNC(=O)c2ccc(OCCO)c(OC)c2)C(F)(F)F)c1 (stereo not drawn) [Compound 541],< 1 µM,10 to 100 µM,< 1 µM,
COc1cc(C(=O)NC[C@@](O)(c2cc(C(C)(C)N)cc(-c3ccc(F)c(Cl)c3)n2)C(F)(F)F)ccc1OCCO [Compound 549],1 to 50 µM,10 to 100 µM,< 1 µM,
COc1cc(C(=O)NC[C@@](O)(c2cc(C(C)(C)N)cc(-c3ccc(F)cc3)n2)C(F)(F)F)ccc1OCCO [Compound 553],< 1 µM,10 to 100 µM,< 1 µM,
COc1cc(C(=O)NCC(O)(c2cc(C(C)(C)N)cc(-c3ccc(I)nc3)n2)C(F)(F)F)ccc1OC1CC1 (stereo not drawn) [Compound 557],< 1 µM,10 to 100 µM,< 1 µM,
COc1cc(C(=O)NCC(O)(c2cc3c(c(-c4ccc(F)cc4)n2)OCC3(N)C(C)C)C(F)(F)F)ccc1OCCO (stereo not drawn) [Compound 565],< 1 µM,10 to 100 µM,< 1 µM,

Structure (SMILES),"EC50 [1, 3]",CC50 at 5 days [2],IC50 (recombinant RSV complex),"EC50 [1, 4]"
COc1cc(C(=O)NCC(O)(c2cc3c(c(-c4ccc(F)cc4)n2)OCC3(N)C(C)C)C(F)(F)F)ccc1OC[C@@H](C)O (stereo partly drawn) [Compound 568],< 1 µM,10 to 100 µM,< 1 µM,
CC(C)(N)c1cc(-c2ccc(F)cc2)nc(C(O)(CNC(=O)c2ccc3c(c2)NC(=O)C3)C(F)(F)F)c1 (stereo not drawn) [Compound 570],,10 to 100 µM,< 1 µM,< 1 µM
COc1cc(C(=O)NCC(O)(c2cc(C(C)(C)N)cc(-c3ccc(F)c(Cl)c3)n2)C(F)(F)F)ccc1NC(C)=O (stereo not drawn) [Compound 592],< 1 µM,10 to 100 µM,< 10 µM,
COc1cc(C(=O)NCC(O)(c2cc(C(C)(C)N)cc(-c3ccc(F)c(Cl)c3)n2)C(F)(F)F)ccc1NS(C)(=O)=O (stereo not drawn) [Compound 593],< 1 µM,10 to 100 µM,< 1 µM,
COc1cc(C(=O)NCC(O)(c2cc3c(c(-c4ccc(F)cc4)n2)OCC3(C)N)C(F)(F)F)ccc1OC1CC(O)C1 (stereo not drawn) [Compound 597],< 1 µM,10 to 100 µM,< 10 µM,
COc1cc(C(=O)NCC(O)(c2cc(C(C)(C)N)cc(-c3ccc(F)cc3)n2)C(F)(F)F)ccc1-c1ccncc1 (stereo not drawn) [Compound 599],< 1 µM,10 to 100 µM,< 1 µM,
COc1cc(C(=O)NC[C@@](O)(c2cc3c(c(-c4ccc(C#N)cc4)n2)OC[C@]3(C)N)C(F)(F)F)ccc1OCCO [Compound 604b],1 to 50 µM,> 100 µM,< 10 µM,
Cc1nc(C(=O)NCC(O)(c2cc(C(C)(C)N)cc(-c3ccc(F)cc3)n2)C(F)(F)F)co1 (stereo not drawn) [Compound 607],1 to 50 µM,10 to 100 µM,< 10 µM,
Cc1ncc(C(=O)NCC(O)(c2cc(C(C)(C)N)cc(-c3ccc(F)cc3)n2)C(F)(F)F)o1 (stereo not drawn) [Compound 608],1 to 50 µM,> 100 µM,< 10 µM,
Cc1ncc(C(=O)NCC(O)(c2cc(C(C)(C)N)cc(-c3ccc(F)cc3)n2)C(F)(F)F)[nH]1 (stereo not drawn) [Compound 609],1 to 50 µM,10 to 100 µM,< 10 µM,
CC(C)(N)c1cc(-c2ccc(F)cc2)nc(C(O)(CNC(=O)c2ccc3oc(=O)[nH]c3c2)C(F)(F)F)c1 (stereo not drawn) [Compound 610],,10 to 100 µM,< 1 µM,< 1 µM
COc1cc(C(=O)NCC(O)(c2ccc(OC)c(-c3ccc(F)cc3)n2)C(F)(F)F)ccc1OCCO (stereo not drawn) [Compound 619],< 1 µM,10 to 100 µM,< 1 µM,
COc1cc(C(=O)NCC(O)(c2cc(C(C)(C)NC(C)=O)cc(-c3ccc(F)cc3)n2)C(F)(F)F)ccc1OC[C@@H](C)O (stereo partly drawn) [Compound 620],,> 100 µM,< 1 µM,< 1 µM
COc1cc(C(=O)NC[C@@](O)(c2cc3c(c(-c4ccc(F)cc4)n2)OC[C@]3(C)N)C(F)(F)F)ccc1OC[C@@H](C)O [Compound 629],< 1 µM,10 to 100 µM,< 1 µM,
COc1cc(C(=O)NC[C@](O)(c2cc3c(c(-c4ccc(F)cc4)n2)OC[C@]3(C)N)C(F)(F)F)ccc1OC[C@@H](C)O [Compound 631],< 1 µM,10 to 100 µM,< 1 µM,
COc1cc(C(=O)NC[C@](O)(c2cc3c(c(-c4ccc(F)cc4)n2)OC[C@@]3(C)N)C(F)(F)F)ccc1OC[C@@H](C)O [Compound 632],< 1 µM,10 to 100 µM,< 1 µM,
COc1cc(C(=O)NC[C@@](O)(c2cc3c(c(-c4ccc(F)cc4)n2)OCC3(C)CN)C(F)(F)F)ccc1OCCO (stereo partly drawn) [Compound 633a],1 to 50 µM,10 to 100 µM,< 1 µM,
CC(C)(N)c1cc(-c2ccc(F)cc2)nc(C(O)(CNC(=O)c2ccc3c(c2)CNC(=O)N3)C(F)(F)F)c1 (stereo not drawn) [Compound 639],1 to 50 µM,10 to 100 µM,< 1 µM,
